The text below walks through data of ChEMBL document CHEMBL4673259, “Discovery of isoquinolinone and naphthyridinone-based inhibitors of poly(ADP-ribose) polymerase-1 (PARP1) as anticancer agents: Structure activity relationship and preclinical characterization” (Bioorg Med Chem, 2020).

The test system of data set [1] is CAPAN-1. Put plainly: Antitumor activity against human CAPAN1 cells xenografted in SCID/nude mouse assessed as tumor growth inhibition at 0.1 mg/kg, po bid measured up to 5 weeks post drug administration. To be noted: CAPAN-1, po, 840 h, time weeks <=5. The format is functional.
For data set [2], the target named is Poly [ADP-ribose] polymerase tankyrase-2 (Homo sapiens, UniProt Q9H2K2). Put plainly: Inhibition of TNKS2 (unknown origin).
Sequence of Poly [ADP-ribose] polymerase tankyrase-2 (Q9H2K2 whole entry): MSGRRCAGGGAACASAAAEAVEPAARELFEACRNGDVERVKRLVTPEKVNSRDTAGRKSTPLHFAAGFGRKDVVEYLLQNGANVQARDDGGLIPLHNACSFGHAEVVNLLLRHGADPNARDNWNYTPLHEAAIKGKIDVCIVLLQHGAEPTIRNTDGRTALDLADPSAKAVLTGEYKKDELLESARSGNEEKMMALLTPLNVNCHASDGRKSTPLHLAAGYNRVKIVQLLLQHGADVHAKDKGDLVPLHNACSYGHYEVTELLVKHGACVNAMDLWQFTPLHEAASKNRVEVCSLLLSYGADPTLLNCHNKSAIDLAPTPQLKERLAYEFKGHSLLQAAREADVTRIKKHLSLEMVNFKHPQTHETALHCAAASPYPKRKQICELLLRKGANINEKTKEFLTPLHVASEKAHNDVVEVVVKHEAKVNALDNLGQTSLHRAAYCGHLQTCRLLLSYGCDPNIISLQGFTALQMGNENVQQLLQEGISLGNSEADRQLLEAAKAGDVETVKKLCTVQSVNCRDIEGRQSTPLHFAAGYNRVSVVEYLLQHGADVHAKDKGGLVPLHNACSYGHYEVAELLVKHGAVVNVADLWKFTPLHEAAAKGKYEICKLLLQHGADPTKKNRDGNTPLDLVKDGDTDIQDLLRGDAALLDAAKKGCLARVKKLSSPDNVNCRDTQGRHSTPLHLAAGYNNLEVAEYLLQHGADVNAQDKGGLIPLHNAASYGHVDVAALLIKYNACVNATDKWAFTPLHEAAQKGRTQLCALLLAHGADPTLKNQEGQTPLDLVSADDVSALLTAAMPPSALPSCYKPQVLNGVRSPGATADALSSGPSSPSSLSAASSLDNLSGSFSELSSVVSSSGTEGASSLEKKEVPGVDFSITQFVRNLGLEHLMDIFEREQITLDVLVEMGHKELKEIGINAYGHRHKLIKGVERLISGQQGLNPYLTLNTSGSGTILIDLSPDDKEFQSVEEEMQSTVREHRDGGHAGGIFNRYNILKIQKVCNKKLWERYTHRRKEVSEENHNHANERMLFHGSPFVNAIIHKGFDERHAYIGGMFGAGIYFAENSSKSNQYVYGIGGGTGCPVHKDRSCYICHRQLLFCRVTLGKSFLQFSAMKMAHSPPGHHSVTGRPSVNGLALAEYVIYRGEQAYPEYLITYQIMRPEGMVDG
In data set [3] the test system is MDA-MB-436. Nature of the data set: Cytotoxicity against human MDA-MB-436 cells assessed as inhibition of cell viability incubated for 14 days with three intermittent intervals by CellTiterGlo luminescence assay. The settings on record: MDA-MB-436, 336 h.
Data set [4] in a line: Toxicity in rat assessed as NOAEL for respiratory effect. The settings on record: in vivo.
Data set [5] has as its target Poly [ADP-ribose] polymerase 1 (Homo sapiens, UniProt P09874). Put plainly: Inhibition of N-terminal GST-tagged human full length PARP1 (2 to 1041 residues) expressed in baculovirus infected Sf9 cells using histone mixture (H2A and H2B) and biotinylated NAD+ as substrate in presence of activated DNA incubated for 60 mins by chemiluminescence assay.
The test system of another data set is SK-ES1. Put plainly: Antitumor activity against human SK-ES-1 cells xenografted in SCID/nude mouse assessed as tumor growth inhibition at 0.45 mg/kg, po bid measured up to 5 weeks post drug administration. Type of data set: functional. To be noted: 840 h, time weeks <=5. (Xenograft models place foreign cells or tissue in a host animal.)
For data set [6], the system named is MDA-MB-436. Nature of the data set: Anticancer activity against human MDA-MB-436 cells harboring BRCA mutant xenografted in SCID/nude mouse assessed as tumor growth regression at 0.15 mg/kg, po bid and measured up to 5 weeks post-drug administration. To be noted: MDA-MB-436, po, 840 h, time weeks <=5. Type of data set: functional.
The nature of data set [7]: Toxicity against SCID/nude mouse xenografted with human CAPAN-1 cells harboring BRCA mutant assessed as body weight loss at 0.15 mg/kg, po bid for 12 days co-administered with 35 mg/kg, po TMZ. The format is organism-based. The settings on record: in vivo, 288 h, time 12 day.
Data set [8] can be described thus: Protein binding in dog plasma. The format is ADME, cell-free, Canis lupus familiaris. The settings on record: read-out: PPB (converted).
For another data set, the system named is HEK293. Put plainly: Cytotoxicity against HEK293 cells at 1000 nM relative to control. The format is cell-based. The settings on record: human, hek293, 1 µM.
The target of another data set is CYP1A2 (Homo sapiens, UniProt P05177). Nature of the data set: Inhibition of CYP1A2 (unknown origin) at 10 uM relative to control. The format is ADME.
Sequence of CYP1A2 (P05177 whole entry): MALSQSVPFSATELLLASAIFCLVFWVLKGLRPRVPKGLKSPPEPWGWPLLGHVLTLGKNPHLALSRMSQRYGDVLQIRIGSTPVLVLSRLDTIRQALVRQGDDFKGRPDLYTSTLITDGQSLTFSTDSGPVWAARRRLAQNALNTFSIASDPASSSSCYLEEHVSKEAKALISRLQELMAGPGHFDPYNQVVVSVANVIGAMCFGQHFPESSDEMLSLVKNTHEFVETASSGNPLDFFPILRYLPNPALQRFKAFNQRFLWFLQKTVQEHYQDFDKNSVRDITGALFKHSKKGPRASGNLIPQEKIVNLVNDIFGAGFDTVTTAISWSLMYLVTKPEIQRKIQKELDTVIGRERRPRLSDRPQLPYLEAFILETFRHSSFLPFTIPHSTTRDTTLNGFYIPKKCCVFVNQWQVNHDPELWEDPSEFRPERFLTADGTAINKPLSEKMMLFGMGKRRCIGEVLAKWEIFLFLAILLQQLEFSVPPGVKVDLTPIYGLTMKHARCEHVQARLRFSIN
The next data set deals with CYP2C9 (Homo sapiens, UniProt P11712). Nature of the data set: Inhibition of CYP2C9 (unknown origin) at 10 uM relative to control. Type of data set: ADME.
Sequence of CYP2C9 (P11712 whole entry): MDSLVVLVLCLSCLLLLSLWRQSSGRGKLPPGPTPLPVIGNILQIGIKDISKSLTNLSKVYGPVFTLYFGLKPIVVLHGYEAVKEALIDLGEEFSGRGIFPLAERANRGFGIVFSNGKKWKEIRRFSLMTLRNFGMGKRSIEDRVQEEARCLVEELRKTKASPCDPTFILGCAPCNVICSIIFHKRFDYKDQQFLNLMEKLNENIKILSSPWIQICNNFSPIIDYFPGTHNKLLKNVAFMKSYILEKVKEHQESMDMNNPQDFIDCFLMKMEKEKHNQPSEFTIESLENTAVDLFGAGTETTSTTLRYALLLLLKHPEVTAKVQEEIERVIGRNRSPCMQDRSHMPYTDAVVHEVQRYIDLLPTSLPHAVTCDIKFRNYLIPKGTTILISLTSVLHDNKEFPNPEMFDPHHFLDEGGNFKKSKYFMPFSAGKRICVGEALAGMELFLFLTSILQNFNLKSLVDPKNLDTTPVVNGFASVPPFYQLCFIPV
For the next data set, the target named is CYP2C19 (Homo sapiens, UniProt P33261). Nature of the data set: Inhibition of CYP2C19 (unknown origin) at 10 uM relative to control. Type of data set: ADME.
Sequence of CYP2C19 (P33261 whole entry): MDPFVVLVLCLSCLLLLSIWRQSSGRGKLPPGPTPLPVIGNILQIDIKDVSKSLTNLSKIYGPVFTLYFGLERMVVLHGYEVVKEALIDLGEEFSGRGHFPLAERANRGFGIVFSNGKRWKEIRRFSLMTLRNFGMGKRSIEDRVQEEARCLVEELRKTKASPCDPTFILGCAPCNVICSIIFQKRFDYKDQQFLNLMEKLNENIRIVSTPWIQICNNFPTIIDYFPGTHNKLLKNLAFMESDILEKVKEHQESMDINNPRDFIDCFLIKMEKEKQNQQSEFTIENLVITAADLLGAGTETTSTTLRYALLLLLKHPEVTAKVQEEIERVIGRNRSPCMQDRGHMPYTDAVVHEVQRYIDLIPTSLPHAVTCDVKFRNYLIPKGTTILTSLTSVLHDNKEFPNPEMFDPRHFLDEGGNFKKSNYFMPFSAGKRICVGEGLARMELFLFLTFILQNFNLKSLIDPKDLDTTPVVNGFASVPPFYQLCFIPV
Data set [9] is described as follows: Volume of distribution at steady state in BALB/c mouse at 1 mg/kg, iv measured up to 24 hrs by LC-MS/MS analysis. To be noted: in vivo, read-out: Vdss. The format is ADME, organism-based.
Data set [10] relates to CAPAN-1. Nature of the data set: Antitumor activity against human CAPAN1 cells xenografted in SCID/nude mouse assessed as tumor growth inhibition at 0.3 mg/kg, po bid measured up to 5 weeks post drug administration. Type of data set: functional. The settings on record: CAPAN-1, po, 840 h, time weeks <=5.
Data set [11] can be described thus: Toxicity in rat assessed as NOAEL. To be noted: in vivo.
The test system of data set [12] is MDA-MB-436. Nature of the data set: Cytotoxicity against human MDA-MB-436 cells assessed as inhibition of cell viability incubated for 4 days by CellTiterGlo luminescence assay. To be noted: MDA-MB-436, 96 h. For orientation: Cellular ATP, detected with luciferase, serves as a proxy for viable cell number.
The next data set concerns the target CYP2E1 (Homo sapiens, UniProt P05181). Put plainly: Inhibition of CYP2E1 (unknown origin) at 10 uM relative to control. The format is ADME.
Data set [13] in a line: AUClast in BALB/c mouse at 10 mg/kg, po measured up to 24 hrs by LC-MS/MS analysis. The format is ADME, organism-based. Also noted: route oral, dose 10 mg/kg, time <=24. The settings on record: in vivo.

In general, inhibition in vivo refers to the percentage by which the read-out fell short of the control. For orientation: IC50 means the concentration that gives 50% inhibition. Usually NOAEL stands for the highest tested level that showed no adverse finding. By inhibition is commonly meant the drop in the measured response relative to a control, in per cent. Read a low inhibition as a response near the control. The term AUC(0-t) denotes the area under the concentration-time curve up to a stated or last time point.

Sequence of Poly [ADP-ribose] polymerase 1 (P09874 whole entry, the tested form may be a part): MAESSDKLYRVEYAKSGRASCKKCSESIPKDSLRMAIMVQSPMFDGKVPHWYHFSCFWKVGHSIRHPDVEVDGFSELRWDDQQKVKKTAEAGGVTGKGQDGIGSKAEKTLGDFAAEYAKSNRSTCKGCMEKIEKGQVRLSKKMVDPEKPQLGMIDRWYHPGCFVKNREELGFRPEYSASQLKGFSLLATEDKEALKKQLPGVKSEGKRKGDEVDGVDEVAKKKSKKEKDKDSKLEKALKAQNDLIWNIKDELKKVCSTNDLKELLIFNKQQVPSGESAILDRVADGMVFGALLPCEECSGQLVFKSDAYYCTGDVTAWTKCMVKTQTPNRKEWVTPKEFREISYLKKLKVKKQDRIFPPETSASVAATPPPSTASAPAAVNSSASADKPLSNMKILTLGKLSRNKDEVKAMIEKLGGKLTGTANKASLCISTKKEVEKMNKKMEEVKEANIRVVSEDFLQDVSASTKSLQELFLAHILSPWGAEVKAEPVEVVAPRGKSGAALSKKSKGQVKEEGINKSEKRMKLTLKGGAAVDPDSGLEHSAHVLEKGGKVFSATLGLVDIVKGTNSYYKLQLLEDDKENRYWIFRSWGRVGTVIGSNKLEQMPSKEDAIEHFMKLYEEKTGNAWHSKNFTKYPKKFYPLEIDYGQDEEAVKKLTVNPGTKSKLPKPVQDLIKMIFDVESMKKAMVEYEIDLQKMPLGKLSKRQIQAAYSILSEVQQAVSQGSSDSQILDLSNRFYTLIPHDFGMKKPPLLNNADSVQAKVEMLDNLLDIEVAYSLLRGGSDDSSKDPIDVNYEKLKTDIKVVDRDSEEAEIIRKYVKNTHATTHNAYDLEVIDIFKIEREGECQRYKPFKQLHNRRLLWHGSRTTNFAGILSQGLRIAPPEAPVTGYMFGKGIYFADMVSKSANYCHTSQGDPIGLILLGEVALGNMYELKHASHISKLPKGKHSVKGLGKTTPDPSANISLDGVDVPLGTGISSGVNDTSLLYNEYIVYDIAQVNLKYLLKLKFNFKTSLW
Sequence of CYP2E1 (P05181 whole entry): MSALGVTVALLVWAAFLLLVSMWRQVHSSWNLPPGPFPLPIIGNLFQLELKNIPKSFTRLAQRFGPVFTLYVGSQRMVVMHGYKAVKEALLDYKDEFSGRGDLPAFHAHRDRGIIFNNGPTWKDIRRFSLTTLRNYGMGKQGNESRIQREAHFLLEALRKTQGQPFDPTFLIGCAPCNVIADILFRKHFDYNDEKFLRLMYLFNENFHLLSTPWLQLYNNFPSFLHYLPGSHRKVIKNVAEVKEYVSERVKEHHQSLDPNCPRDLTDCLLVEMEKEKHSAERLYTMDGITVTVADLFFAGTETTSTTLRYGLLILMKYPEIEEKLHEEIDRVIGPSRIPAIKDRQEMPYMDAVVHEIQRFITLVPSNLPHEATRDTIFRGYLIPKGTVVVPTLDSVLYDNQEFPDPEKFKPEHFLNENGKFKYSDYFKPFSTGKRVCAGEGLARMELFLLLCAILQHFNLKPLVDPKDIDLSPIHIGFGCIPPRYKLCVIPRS

For `N#Cc1ccc(N2CCN([C@H]3C=C(c4cc5ncccc5c(=O)[nH]4)CC3)CC2)cc1`, the inhibition in vivo at 0.1 mg/kg in the data set with CAPAN-1 [1] turned out to be 46.1%. The half-maximal inhibitory concentration (IC50) in data set [2] was 74 nM; in the data set with MDA-MB-436 [3], 0.0008 nM; in data set [5], 1.1 nM; with MDA-MB-436 [12], 0.035 nM. Moreover, the results for the no-observed-adverse-effect level (NOAEL) in data set [4] and in data set [11] were 30 mg/kg/day and 15 mg/kg/day, respectively. Besides, the inhibition in vivo at 0.45 mg/kg in the data set with SK-ES1 is 20%. Further, in the data set with MDA-MB-436 [6], the inhibition in vivo at 0.15 mg/kg amounted to 79%. Also, the Activity entry is “Non-Toxic” in data set [7] and 72% in the data set on HEK293. Moreover, the fraction unbound in data set [8] was 0.125. Further, the inhibition at 10 µM on CYP1A2, at CYP2C9, against CYP2C19 and against CYP2E1 was at most 23% each time. Also, in data set [9], the Vd came out at 0.2 L/kg. Also, the inhibition in vivo at 0.3 mg/kg in the data set on CAPAN-1 [10] was 49.6%. In addition, the exposure AUC(0-t) at 24 h in [13] stood at 403 µM·h.
